Reference: patent US9814709B2, “Bruton's tyrosine kinase inhibitor” (HEFEI INSTITUTES OF PHYSICAL SCIENCE, CHINESE ACADEMY OF …, priority 2014, dated 2017)

Test system: SD rat adjuvant arthritis (AA) model
Test: SD rat adjuvant arthritis (AA) model, arthritis index
Type: in vivo
Procedure: In this example, SD rat adjuvant arthritis (AA) model (purchased from the Experimental Animal Center of Anhui Province) was used. PCI-32765 and methotrexate (MTX) were used as positive control (both purchased from Shanghai Chemexpress). The therapeutic effect of Compound 1 on AA rats was studied via the combination of in vivo and in vitro administration. 10 mg/nal of complete Freund's adjuvant (CFA, purchased from Shanghai Chemexpress) was mixed well, and 0.1 ml of CFA was intracutaneously injected into each rat at right posterior plantar to induce inflammation. The normal group was injected with saline via the same method. On the 17th day, the successful modeling male SD rats were randomly divided into 7 groups with 10 rats in each group, namely the model group, the small/medium/large dose of Compound 1 group (12.5, 25, 50 mg/kg/per administration, intraperitoneal injection, one administration per day for 16 days), the Compound 19 group (25 mg/kg/per administration, intraperitoneal injection, one administration per day for 16 days), the positive control PCI-32765 group (25 mg/kg/per administration, intraperitoneal injection, one administration per day for 16 days), the MTX group (0.5 mg/kg, intragastrical, one administration every 3 days, totally 6 times). The rats in the model group were intraperitoneally injected with the same amount of DMSO solution.

Compound	effect on arthritis index of rats (25 mg/kg intraperitoneal once per day, starting from day 24)	effect on arthritis index of rats compared with the model group (0.5 mg/kg intragastrical every 3 days, starting from day 21)
C=CC(=O)N1CCC[C@@H](n2nc(-c3ccc(Oc4ccccc4)cc3)c3c(N)ncnc32)C1 [PCI-32765, reference compound]	significantly reduce	–
CN(Cc1cnc2nc(N)nc(N)c2n1)c1ccc(C(=O)N[C@@H](CCC(=O)O)C(=O)O)cc1 [MTX, methotrexate, reference compound]	–	significantly reduced
